Source: US20230085307A1, “PYRIDAZINONE COMPOUND AND HERBICIDE” (NISSAN CHEMICAL CORPORATION, priority 2019, published 2023)

Experiments:
velvetleaf = test: Test Example 5: herbicidal effect by foliage application, plastic box (Table 20, symbol M); type: in vivo, velvetleaf (Abutilon theophrasti); conditions: foliage application, 320 g/ha, three weeks after application
Summary of the method: (§1)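 Sow seeds spot-wise in sterilized diluvial soil; cover with ~1.5 cm soil. Grow 14 days in greenhouse, 25° C. to 30° C. Spray foliage with emulsion diluted to predetermined amount. Rate effect after 3 weeks.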

barnyard grass [1] = test: Test Example 5: herbicidal effect by foliage application, plastic box (Table 20, symbol H); type: in vivo, barnyard grass (Echinochloa crus-galli); conditions: foliage application, 320 g/ha, three weeks after application
Summary of the method: as §1

Chinese sprangletop = test: Test Example 3: herbicidal effect by foliage application, Wagner pot (Table 18, symbol D); type: in vivo, chinese sprangletop (Leptochloa chinensis); conditions: 320 g/ha
Summary of the method: (§2)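 Plants were sown in alluvial soil held under 0.1–0.5 cm standing water and grown 14 days in a greenhouse at 25–30 °C. An emulsifiable formulation, water-diluted to the set dose, was then sprayed onto the foliage, and effects were scored three weeks later using previously defined criteria.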

blackgrass = test: Test Example 5: herbicidal effect by foliage application, plastic box (Table 20, symbol J); type: in vivo, blackgrass (Alopecurus myosuroides); conditions: foliage application, 320 g/ha, three weeks after application
Summary of the method: as §1

lambsquarters = test: Test Example 5: herbicidal effect by foliage application, plastic box (Table 20, symbol O); type: in vivo, lambsquarters (Chenopodium album); conditions: foliage application, 320 g/ha, three weeks after application
Summary of the method: as §1

southern crabgrass = test: Test Example 5: herbicidal effect by foliage application, plastic box (Table 20, symbol F); type: in vivo, southern crabgrass (Digitaria ciliaris); conditions: foliage application, 320 g/ha, three weeks after application
Summary of the method: as §1

chickweed = test: Test Example 5: herbicidal effect by foliage application, plastic box (Table 20, symbol P); type: in vivo, common chickweed (Stellaria media); conditions: foliage application, 320 g/ha, three weeks after application
Summary of the method: as §1

Italian ryegrass = test: Test Example 5: herbicidal effect by foliage application, plastic box (Table 20, symbol K); type: in vivo, Italian ryegrass (Lolium multiflorum); conditions: foliage application, 320 g/ha, three weeks after application
Summary of the method: as §1

green foxtail = test: Test Example 5: herbicidal effect by foliage application, plastic box (Table 20, symbol G); type: in vivo, green foxtail (Setaria viridis); conditions: foliage application, 320 g/ha, three weeks after application
Summary of the method: as §1

persian speedwell = test: Test Example 5: herbicidal effect by foliage application, plastic box (Table 20, symbol R); type: in vivo, Persian speedwell (Veronica persica); conditions: foliage application, 320 g/ha, three weeks after application
Summary of the method: as §1

rice flat sedge = test: Test Example 3: herbicidal effect by foliage application, Wagner pot (Table 18, symbol E); type: in vivo, rice flat sedge (Cyperus iria); conditions: 320 g/ha
Summary of the method: as §2

redroot pigweed = test: Test Example 5: herbicidal effect by foliage application, plastic box (Table 20, symbol N); type: in vivo, redroot pigweed (Amaranthus retroflexus); conditions: foliage application, 320 g/ha, three weeks after application
Summary of the method: as §1

Japanese bulrush = test: Test Example 1: herbicidal activity, application before weed generation under submerged conditions (Table 16, symbol B); type: in vivo, Japanese bulrush (Schoenoplectus juncoides); conditions: 320 g/ha applied herbicide
Summary of the method: (§3)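 Alluvial soil was flooded to 4 cm depth, weed seeds were sown mixed and 2.5-leaf rice seedlings were transplanted. On sowing day, the compound's emulsion, diluted in water to a set dose, was applied to the water surface. Plants grew at 25–30 °C and were scored 0–5 after three weeks.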

false cleavers = test: Test Example 5: herbicidal effect by foliage application, plastic box (Table 20, symbol Q); type: in vivo, false cleavers (Galium spurium); conditions: foliage application, 320 g/ha, three weeks after application
Summary of the method: as §1

late watergrass = test: Test Example 1: herbicidal activity, application before weed generation under submerged conditions (Table 16, symbol A); type: in vivo, late watergrass (Echinochloa oryzicola); conditions: 320 g/ha applied herbicide
Summary of the method: as §3

barnyard grass [2] = test: Test Example 3: herbicidal effect by foliage application, Wagner pot (Table 18, symbol H); type: in vivo, barnyard grass (Echinochloa crus-galli); conditions: 320 g/ha
Summary of the method: as §2

wild oat = test: Test Example 5: herbicidal effect by foliage application, plastic box (Table 20, symbol I); type: in vivo, wild oat (Avena fatua); conditions: foliage application, 320 g/ha, three weeks after application
Summary of the method: as §1

windgrass = test: Test Example 5: herbicidal effect by foliage application, plastic box (Table 20, symbol L); type: in vivo, windgrass (Apera spica-venti); conditions: foliage application, 320 g/ha, three weeks after application
Summary of the method: as §1

oval-leafed pondweed = test: Test Example 1: herbicidal activity, application before weed generation under submerged conditions (Table 16, symbol C); type: in vivo, oval-leafed pondweed (Monochoria vaginalis); conditions: 320 g/ha applied herbicide
Summary of the method: as §3

Compound | herbicidal effect grade, M: velvetleaf (velvetleaf) | herbicidal effect grade, H: barnyard grass (barnyard grass [1]) | herbicidal effect on D (Chinese sprangletop), rating 0-5 (Chinese sprangletop) | herbicidal effect grade, J: blackgrass (blackgrass) | herbicidal effect grade, O: lambsquarters (lambsquarters) | herbicidal effect grade, F: southern crabgrass (southern crabgrass) | herbicidal effect grade, P: chickweed (chickweed) | herbicidal effect grade, K: Italian ryegrass (Italian ryegrass) | herbicidal effect grade, G: green foxtail (green foxtail) | herbicidal effect grade, R: persian speedwell (persian speedwell) | herbicidal effect on E (rice flat sedge), rating 0-5 (rice flat sedge) | herbicidal effect grade, N: redroot pigweed (redroot pigweed) | Herbicidal effect on B: Japanese bulrush (grade 0-5) (Japanese bulrush) | herbicidal effect grade, Q: false cleavers (false cleavers) | Herbicidal effect on A: late watergrass (grade 0-5) (late watergrass) | herbicidal effect on H (barnyard grass), rating 0-5 (barnyard grass [2]) | herbicidal effect grade, I: wild oat (wild oat) | herbicidal effect grade, L: windgrass (windgrass) | Herbicidal effect on C: oval-leafed pondweed (grade 0-5) (oval-leafed pondweed)
CCCCOc1ccccc1-c1sc2ccccc2c1-c1c(O)c(C)nn(C)c1=O [1-022] | 0 (Herbicidal rate of 5% or less (almost no effect)) | 3 (Herbicidal rate of 40% or more and less than 70%) | 0 (Herbicidal rate of 5% or less (almost no effect)) | 0 (Herbicidal rate of 5% or less (almost no effect)) | 0 (Herbicidal rate of 5% or less (almost no effect)) | 0 (Herbicidal rate of 5% or less (almost no effect)) | 5 (Herbicidal rate of 90% or more (almost completely withered)) | 0 (Herbicidal rate of 5% or less (almost no effect)) | 0 (Herbicidal rate of 5% or less (almost no effect)) | 5 (Herbicidal rate of 90% or more (almost completely withered)) | 4 (Herbicidal rate of 70% or more and less than 90%) | 3 (Herbicidal rate of 40% or more and less than 70%) | 3 (Herbicidal rate of 40% or more and less than 70%) | 4 (Herbicidal rate of 70% or more and less than 90%) | 2 (Herbicidal rate of 20% or more and less than 40%) | 3 (Herbicidal rate of 40% or more and less than 70%) | 0 (Herbicidal rate of 5% or less (almost no effect)) | 0 (Herbicidal rate of 5% or less (almost no effect)) | –
CCCCCCOc1ccc(-c2sc3ccccc3c2-c2c(OC(=O)CCC)c(C)nn(C)c2=O)cc1 [1-029] | 2 (Herbicidal rate of 20% or more and less than 40%) | 0 (Herbicidal rate of 5% or less (almost no effect)) | – | 0 (Herbicidal rate of 5% or less (almost no effect)) | 2 (Herbicidal rate of 20% or more and less than 40%) | 0 (Herbicidal rate of 5% or less (almost no effect)) | 5 (Herbicidal rate of 90% or more (almost completely withered)) | 0 (Herbicidal rate of 5% or less (almost no effect)) | 0 (Herbicidal rate of 5% or less (almost no effect)) | 0 (Herbicidal rate of 5% or less (almost no effect)) | – | 4 (Herbicidal rate of 70% or more and less than 90%) | 1 (Herbicidal rate of 5% or more and less than 20%) | 1 (Herbicidal rate of 5% or more and less than 20%) | 0 (Herbicidal rate of 5% or less (almost no effect)) | – | 0 (Herbicidal rate of 5% or less (almost no effect)) | 0 (Herbicidal rate of 5% or less (almost no effect)) | 2 (Herbicidal rate of 20% or more and less than 40%)
